In PMC2639639, “Identification of Three Classes of Heteroaromatic Compounds with Activity against Intracellular Trypanosoma cruzi by Chemical Library Screening” (PLoS Neglected Tropical Diseases, 2009):
Like-named read-outs stand apart in the source and are kept apart here.

Legend:
NIH/3T3 cells = assay: Cytotoxicity assay (Alamar Blue) on NIH/3T3 cells; assay type: cell-based; settings: 4-day assay on NIH/3T3 cells
Description: (§1) Cells (NIH/3T3 or HepG2) were washed and plated at a density of 50,000 cells/well of 96-well plates in 200 µl and allowed to adhere for 3 h. Twenty-four hour assays were done in DMEM without phenol red supplemented with 10% FBS and Pen-Strep-Glut, while 4-day assays were done in the same medium containing 2% FBS. Drugs were added and mixed. After 1 or 4 days, 20 µl of Alamar Blue (Biosource, Invitrogen) was added. Plates were incubated for 4 h (HepG2) or 6 h (NIH/3T3) at 37°C and fluorescence was read using a Labsystems Fluoroskan II plate reader (excitation: 544 nm, emission: 590 nm) .
(§2) To determine TC50 values, fluorescence was plotted against inhibitor concentration. TC50 was determined as the concentration at which cytotoxicity (fluorescence) was half that in the absence of inhibitor.

[1] = test system: T. cruzi (Tulahuen strain) expressing β-galactosidase; assay: T. cruzi growth inhibition assay (β-gal activity, infection of NIH/3T3 cells); assay type: cell-based, Trypanosoma cruzi
Description: NIH/3T3 cells and parasites were harvested, washed once and resuspended in DMEM supplemented with 2% FBS and Pen-Strep-Glut. […] Different numbers of NIH/3T3 cells were seeded in 96-well plates. After 3 h, compounds were added at the indicated concentrations and mixed by pipetting. BZN tablets (Rochagan, Roche) dissolved in DMSO and 4 µM Amphotericin B solution (Sigma-Aldrich) were used as positive controls. Different numbers of T. cruzi parasites were added in a final volume of 200 µl/well. After 4 days, 50 µl of PBS containing 0.5% of the detergent NP40 and 100 µM Chlorophenol Red-β-D-galactoside (CPRG) (Fluka) were added. Plates were incubated at 37°C for 4 h and absorbance was read at 590 nm using a Tecan Spectra Mini plate reader.
To calculate the Z′ factor, we used the formula described by Zhang et al.: Z′ = 1−[(3σc++3σc−) / |μc+−μc−|] where σc+ = standard deviation (SD) of positive control, σc− = SD of negative control, μc+ = mean of positive control, μc− = mean of negative control. Subsequently, the best ratio was used for all growth inhibition assays (50.000 cells and parasites, multiplicity of infection (MOI) 1∶1).
To determine IC50 values, β-gal activity (Abs590) was plotted against compound concentration for each compound. The IC50 was determined as the concentration at which the activity (absorbance) was half that in the absence of compound. Mean IC50 values are the average of independent experiments performed in triplicate on three different days.

mammalian cells = assay: Cytotoxicity on mammalian cells (cell type not given); assay type: cell-based; settings: cells and duration not stated
Description: as §1, §2

[2] = Trypanosoma cruzi, TULAHUEN, NIH3T3, other confirmed hits that retained activity at 5 µg/ml, read-out: IC50 < 1 µg/ml
[3] = Trypanosoma cruzi, TULAHUEN, NIH3T3, 96 h, β-gal T. cruzi Tulahuen, 50.000 NIH/3T3 cells and parasites (MOI 1:1), 4 days, read-out: IC50 Intracellular growth
[4] = β-gal T. cruzi Tulahuen, 50.000 NIH/3T3 cells and parasites (MOI 1:1), 4 days, read-out: IC50 Intracellular growth
[5] = Trypanosoma cruzi, TULAHUEN, NIH3T3, 96 h, read-out: IC50 Intracellular growth

Cc1ccc2n(c1)cc(C)[n+]2CC(=O)c1ccc(-c2ccccc2)cc1.[Br-] [1-[2-(4-biphenylyl)-2-oxoethyl]-2,6-dimethylimidazo[1,2-a]pyridin-1-ium bromide]
TC50 > 25 mg/ml (NIH/3T3 cells): YES (> 25 mg/ml)
IC50 [1, 2]: > 1 µg/mL

O=c1c2c3c(sc2[nH]c(=S)n1Cc1ccccc1)CCC3 [3-benzyl-2-thioxo-1,2,3,5,6,7-hexahydro-4H-cyclopenta[4,5]thieno[2,3-d]pyrimidin-4-one]
TC50 > 25 mg/ml (NIH/3T3 cells): NO (> 25 mg/ml)
IC50 [1, 2]: > 1 µg/mL

Br.Cc1ccnc(Nc2nc(-c3ccccn3)cs2)c1 [4-methyl-N-[4-(2-pyridinyl)-1,3-thiazol-2-yl]-2-pyridinamine hydrobromide]
TC50 > 25 mg/ml (NIH/3T3 cells): NO (> 25 mg/ml)
IC50 [1, 2]: < 1 µg/mL

Cc1cc(OCCCCCn2ccnc2)cc(C)c1Cl [CX2, 1-[5-(4-chloro-3,5-dimethylphenoxy)pentyl]-1H-imidazole]
IC50 [1, 3]: 2 nM
IC50 [1, 4]: 2.5 nM
TC50 (mammalian cells): 19.5 µM

Cc1cc(OCCCCn2ccnc2)cc(C)c1Cl [CX3, 1-[4-(4-chloro-3,5-dimethylphenoxy)butyl]-1H-imidazole]
IC50 [1, 3]: 5.1 nM

Cc1cc(Cl)cc(C)c1OCCCCCCn1ccnc1 [CX4, 1-[6-(4-chloro-2,6-dimethylphenoxy)hexyl]-1H-imidazole]
IC50 [1, 3]: 300 nM

Cc1cc(Cl)cc(C)c1OCCCCCn1ccnc1 [CX5, 1-[5-(4-chloro-2,6-dimethylphenoxy)pentyl]-1H-imidazole]
IC50 [1, 3]: 20.5 nM

Cc1cc(Cl)cc(C)c1OCCCCn1ccnc1 [CX6, 1-[4-(4-chloro-2,6-dimethylphenoxy)butyl]-1H-imidazole]
IC50 [1, 3]: 71.6 ± 37 nM

O=C(NN=Cc1cc(Br)cc(Br)c1O)c1cccc(N2CCCC2=O)c1 [N'-(3,5-dibromo-2-hydroxybenzylidene)-3-(2-oxo-1-pyrrolidinyl)benzohydrazide]
TC50 > 25 mg/ml (NIH/3T3 cells): NO (> 25 mg/ml)
IC50 [1, 2]: > 1 µg/mL

CCN(CC)c1ccc(N=Cc2cccc(C)c2)cc1 [N,N-diethyl-N'-(3-methylbenzylidene)-1,4-benzenediamine]
TC50 > 25 mg/ml (NIH/3T3 cells): YES (> 25 mg/ml)
IC50 [1, 2]: > 1 µg/mL

COc1ccc(NC(=S)NC(=O)c2ccco2)cc1 [N-{[(4-methoxyphenyl)amino]carbonothioyl}-2-furamide]
TC50 > 25 mg/ml (NIH/3T3 cells): YES (> 25 mg/ml)
IC50 [1, 2]: > 1 µg/mL

COc1cc(NC(=O)Cn2cnc([N+](=O)[O-])n2)cc([N+](=O)[O-])c1 [NT2, N-(3-methoxy-5-nitrophenyl)-2-(3-nitro-1H-1,2,4-triazol-1-yl)acetamide]
IC50 [1, 5]: 2630 ± 808 nM

O=C(Cn1cnc([N+](=O)[O-])n1)Nc1cc(Oc2cccnc2)cc([N+](=O)[O-])c1 [NT3, N-[3-nitro-5-(3-pyridinyloxy)phenyl]-2-(3-nitro-1H-1,2,4-triazol-1-yl)acetamide]
IC50 [1, 5]: 4920 ± 1280 nM

O=C(Cn1cnc([N+](=O)[O-])n1)Nc1cc(Oc2cncc(Cl)c2)cc([N+](=O)[O-])c1 [NT4, N-{3-[(5-chloro-3-pyridinyl)oxy]-5-nitrophenyl}-2-(3-nitro-1H-1,2,4-triazol-1-yl)acetamide]
IC50 [1, 5]: 1270 ± 251 nM

O=C(Cn1cnc([N+](=O)[O-])n1)Nc1cccc(C(F)(F)F)c1 [NT5, 2-(3-nitro-1H-1,2,4-triazol-1-yl)-N-[3-(trifluoromethyl)phenyl]acetamide]
IC50 [1, 3]: 1060 ± 385 nM

O=C(Cn1cnc([N+](=O)[O-])n1)Nc1cc(C(F)(F)F)ccc1Cl [NT6, N-[2-chloro-5-(trifluoromethyl)phenyl]-2-(3-nitro-1H-1,2,4-triazol-1-yl)acetamide]
IC50 [1, 3]: 1130 ± 378 nM

O=C(Cn1cnc([N+](=O)[O-])n1)Nc1ccc(Cl)cc1C(F)(F)F [NT7, N-[4-chloro-2-(trifluoromethyl)phenyl]-2-(3-nitro-1H-1,2,4-triazol-1-yl)acetamide]
IC50 [1, 3]: 1290 ± 463 nM

O=C(CCCn1cnc([N+](=O)[O-])n1)Nc1cc(C(F)(F)F)ccc1Cl [NT8, N-[2-chloro-5-(trifluoromethyl)phenyl]-4-(3-nitro-1H-1,2,4-triazol-1-yl)butanamide]
IC50 [1, 3]: 983 ± 388 nM

O=C(CCCn1cnc([N+](=O)[O-])n1)Nc1ccccc1C(F)(F)F [NT9, 4-(3-nitro-1H-1,2,4-triazol-1-yl)-N-[2-(trifluoromethyl)phenyl]butanamide]
IC50 [1, 3]: 3020 ± 1390 nM

O=C(NN=Cc1ccc(-c2cccc(Cl)c2Cl)o1)c1cccnc1 [PCH2, N′-{[5-(2,3-dichlorophenyl)-2-furyl]methylene}nicotinohydrazide]
IC50 [1, 3]: 1930 ± 707 nM

O=C(NN=Cc1ccc(-c2cccc(Cl)c2Cl)o1)c1ccncc1 [PCH3, N′-{[5-(2,3-dichlorophenyl)-2-furyl]methylene}isonicotinohydrazide]
IC50 [1, 3]: > 10000 nM

O=C(NN=Cc1ccc(-c2cccc(Cl)c2Cl)o1)c1ccc(Br)cc1 [PCH4, 4-bromo-N′-{[5-(2,3-dichlorophenyl)-2-furyl]methylene}benzohydrazide]
IC50 [1, 3]: > 10000 nM

O=C(NN=Cc1ccc(-c2cccc(Cl)c2)o1)c1ccccn1 [PCH5, N′-{[5-(3-chlorophenyl)-2-furyl]methylene}-2-pyridinecarbohydrazide]
IC50 [1, 3]: 29 ± 20 nM

O=C(NN=Cc1ccc(-c2ccccc2Cl)o1)c1ccccn1 [PCH6, N′-{[5-(2-chlorophenyl)-2-furyl]methylene}-2-pyridinecarbohydrazide]
IC50 [1, 3]: 2 nM
IC50 [1, 4]: 2.1 nM
TC50 (mammalian cells): 18.5 µM

O=C(NN=Cc1ccc(-c2ccc(Cl)c(Cl)c2)o1)c1ccccn1 [PCH7, N′-{[5-(3,4-dichlorophenyl)-2-furyl]methylene}-2-pyridinecarbohydrazide]
IC50 [1, 3]: 35 ± 20 nM

COc1ccc(-c2ccc(C=NNC(=O)c3ccccn3)o2)cc1Cl [PCH8, N′-{[5-(3-chloro-4-methoxyphenyl)-2-furyl]methylene}-2-pyridinecarbohydrazide]
IC50 ([1]; Trypanosoma cruzi, TULAHUEN, NIH3T3, 96 h, β-gal T. cruzi Tulahuen in NIH/3T3 cells, 4 days, read-out: IC50 T. cruzi growth inhibition): 1600 nM
IC50 [1, 3]: 1680 ± 490 nM

O=C(NN=Cc1ccc(-c2cc(Cl)ccc2Cl)o1)c1ccccc1 [PCH9, N′-{[5-(2,5-dichlorophenyl)-2-furyl]methylene}benzohydrazide]
IC50 [1, 3]: 960 ± 300 nM

O=C(NN=Cc1ccc(-c2ccccc2Cl)o1)c1cccnc1 [PCH10, N′-{[5-(2-chlorophenyl)-2-furyl]methylene}nicotinohydrazide]
IC50 [1, 3]: 720 ± 183 nM

CCOC(=O)c1ccc(Nc2nc3nonc3nc2NC(C)C)cc1 [ethyl 4-{[6-(isopropylamino)[1,2,5]oxadiazolo[3,4-b]pyrazin-5-yl]amino}benzoate]
TC50 > 25 mg/ml (NIH/3T3 cells): NO (> 25 mg/ml)
IC50 [1, 2]: > 1 µg/mL

CCOc1ccc(-c2cn3c4ccccc4n(CCN(CC)CC)c3n2)cc1.Cl [{2-[2-(4-ethoxyphenyl)-9H-imidazo[1,2-a]benzimidazol-9-yl]ethyl}diethylamine hydrochloride]
TC50 > 25 mg/ml (NIH/3T3 cells): NO (> 25 mg/ml)
IC50 [1, 2]: > 1 µg/mL
